Measured values: paper PMC12389415, “Killer Peptide-Containing Polyelectrolytic Nanocomplexes to Fight Toxoplasma gondii Infection” (Pharmaceutics, 2025)
Read-outs that look alike come from different tables or passages of the source. Where a SMILES comes first, the peptide text is derived from it.

Tests used:
[1] = supplier data; ref Thermo Scientific; cited from earlier work
Excerpt: Killer peptide ([…], MW: 998.2, isoelectric point: 8.97) was acquired from Thermo Scientific (Rockford, IL, USA). Sodium hyaluronate (Hyal, MW: 15–30 kDa) was obtained from Contipro (Praha, Czech Republic). Chitosan (Chito, MW: 66 kDa, degree of deacetylation: 96%) was from Primex (Siglufjordur, Iceland). Acetic acid was from Merck. Ultrapure (UP) water was obtained by inverse osmosis using an Arium Comfort® system by Sartorius (Gottingen, Germany). Solvents and reagents were from Avantor, VWR, unless otherwise specified. Resazurin and chlorophenol red-β-D-galactopyranoside (CPRG) were ...

[2] = system: T. gondii free tachyzoites; experiment: Free tachyzoites exposure, parasite quantification by real-time PCR (B1 gene); format: cell-based, Toxoplasma gondii
Experimental: Additionally, the same experiment was performed in duplicate to extract DNA for subsequent quantification of the parasite using real-time PCR CFX96™ Biorad® (version 3.1) (without using coverslips in the wells). The protocol by Santoro et al., amplifying the target B1 gene using Taqman technology, was optimized by defining the appropriate annealing temperature and amplification cycles. A standard curve for quantification was generated using T. gondii RH-WT grown in HFF cells, to ensure consistency in the results. DNA was extracted with the commercial kit Invitrogen PureLink™ Genomic DNA Mini Kit (Thermo Fisher Scientific, Waltham, Massachusetts, USA) from infected cells (control/treatment) 48 h after seeding, and it was used for amplification of the B1 gene.
The resulting product was loaded onto an agarose gel, and the corresponding band was excised for DNA quantification (12.3 ng/µL). From this, the number of copies per µL (1.1 × 10^11) was calculated using Copy Number Calculator (accessed on 11 April 2025)), and a standard curve was generated via serial dilutions (starting from a concentration of 10^8 copies of DNA/µL down to 10^2 copies of DNA/µL). Each condition was tested in four wells; three independent experiments were conducted.

[3] = system: T. gondii β-gal-RH (Type I) intracellular tachyzoites in HFFs; experiment: Toxo-β-gal assay, post-infection model (intracellular parasites); format: cell-based, Toxoplasma gondii; conditions: dose-response, 48 h
Experimental: T. gondii β-gal-RH (Type I) is a genetically modified strain constitutively expressing β-galactosidase under the control of the promoter SAG1 (constitutive promoter). Susceptibility of T. gondii β-gal to the tested compounds was assessed by determining IC50 values based on β-galactosidase assay, as described by Păunescu et al. Briefly, HFFs (5 × 10^3/well) were seeded into 96-well plates, and once confluent, 200 µL of a suspension of parasites prepared in DMEM + 10% FBS at the concentration of 7.5 × 10^4/mL was added to each well resulting in 1.5 × 10^4 parasites per well.
Plates were incubated for 48 h 37 °C, 5% CO2, then cultures were washed once with 200 μL/well of PBS 1×. […] In total, 10 μL of 5 mM chlorophenol red-β-D-galactopyranoside (CPRG) was added to each well, and the reaction was monitored until saturation (usually reached in 30 min) by repeatedly measuring absorbance at 570 nm. The values obtained from the initial readings were subtracted from the respective final readings, and from these, the averages of each group were calculated. This was followed by calculation of the standard deviation and the calculation of percentage (normalized) absorbance, which was obtained from a ratio between the mean of the treatments and the mean of the negative control (DMEM 10% FBS), multiplied by 100. […]

[4] = Experimental: Before formulation, peptide solubility and gelation properties were evaluated by dispersing the powder in different solvents, namely ultrapure water, phosphate-buffered saline, ethanol, methanol, or isopropanol, to evaluate its solubility and gelation properties and select the more appropriate formulative approach by microfluidics.
The solubility of KP and the flowability of the resulting solution are critical elements for microfluidic processing, since viscous solutions cannot be used, as they alter laminar flow conditions or clog the chip’s channels. For this reason, common solvents were screened to select those providing the highest solubility, to prevent spontaneous precipitation of the peptide, without neglecting their acceptability from the toxicological point of view.

[5] = Stability of free KP and KP-NPs under stress conditions (60 °C, acid, alkali); conditions: 2 h, Micro BCA
Experimental: Moreover, KP-NPs were exposed to harsh conditions, to assess the ability of the formulation to protect KP from environmental degradation. […] These three samples were exposed to high temperatures (60 °C) for 2 h, then particle size and KP content were evaluated as described above.
To further assess the stability of KP-NPs and their potential protective effect on KP, both free KP and KP-NPs were subjected to harsh stress conditions, namely high temperature (60 °C) and strong acidic or alkaline environment (0.1 M HCl or NaOH) for two hours. […] As for nanoparticles, particle size was checked (Table 3), and the amount of KP released quantified.

[6] = system: intracellular tachyzoites of T. gondii; conditions: in vitro; cited from earlier work
Excerpt: From a parasitological point of view, the fact that the nanoparticles developed here are effective against T. gondii, also without KP, is very intriguing and represents a novel finding. In fact, to the best of our knowledge, no literature describes a parasiticidal role of hyaluronate; while some studies have investigated the parasiticidal activity of chitosan-based nanoparticles, this was limited to the extracellular form or fre ...

[7] = real-time PCR B1 gene, 48 h, KP 250 µg/mL or corresponding NPs

CSCC[C@H](NC(=O)[C@@H](NC(=O)[C@@H](NC(=O)[C@H](CCCCN)NC(=O)[C@H](C)N)C(C)C)[C@@H](C)O)C(=O)N[C@H](C(=O)N[C@@H](CS)C(=O)N[C@@H](CO)C(=O)N[C@@H](C)C(=O)N[C@@H](CO)C(=O)O)[C@@H](C)O [KP] (H-AKVTMTCSAS-OH; N-terminus and C-terminus assumed)
isoelectric point [1]: 8.97
% Reduction Rate (parasite load) ([2]; compared to the control (DMEM), KP 250 µg/mL or corresponding NPs): 94.6%
Log SQ [2, 7]: 3.741
SQ Mean [2, 7]: 6041
Cq Mean ([2]; real-time PCR B1 gene, DNA extracted 48 h after seeding, KP 250 µg/mL or corresponding NPs): 28.17
FC ([2]; vs DMEM control): 0.072
ΔCq ([2]; vs DMEM control): 3.80
Efficacy against intracellular T. gondii (in words) [3]: did not exhibit any efficacy
Sol-gel transition kinetics in water ([4]; KP 3.5 mg/mL, room temperature): over the course of two days
Sol-gel transition kinetics in water ([4]; KP 5 mg/mL): almost instantaneous
Gelation in ethanol ([4]; after dissolution at 2 mg/mL): almost immediate transition, leading to the formation of a thick gel
Solubility in ethanol ([4]; at least up to): ≥ 2000 µg/mL
Solubility in PBS ([4]; phosphate-buffered saline): practically insoluble
Solubility in acetone ([4]; powder dispersed in solvent): practically insoluble
Solubility in isopropanol ([4]; powder dispersed in solvent): practically insoluble
Solubility in methanol ([4]; verified up to): ≥ 2000 µg/mL
Recovery of peptide after stress ([5]; acidic conditions (0.1 M HCl), 60 °C): full recovery
Peptide degraded after stress ([5]; alkaline conditions (0.1 M NaOH), 60 °C): approximately 20%
Recovery of peptide after stress ([5]; high temperature (60 °C)): full recovery

spiramycin
IC50 [6]: 218 µg/mL
